Test results published in the supplement of paper PMC10307832.

Assays:
Assay in all cases: relative viability (nuclei count vs DMSO), 5 days (fraction); higher = more cells survive
[1] = compound: C/C(=N\NC(=S)N1CCC1)/C2=CC=CC=N2 + COc1cccc2cc(-c3nc([C@H]4CC[C@H](C(=O)O)CC4)n4ncnc(N)c34)[nH]c12 [OSI-027] (partner 0.5 µM)
Procedure, shortened: (§1)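 Relative viability equals treated-well nuclei counts divided by vehicle-well nuclei counts. Counts came from 4× images of lung cancer cell lines grown in 1536-well plates for 5 days after pin-tool dosing on the day after seeding. Dosing used one drug alone or a fixed anchor-drug dose plus five library-drug doses (not always all listed) in √10 steps, and values are medians of duplicate plates.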

[2] = compound: C/C(=N\NC(=S)N1CCC1)/C2=CC=CC=N2 + C[C@@H](Oc1cc(-c2cnn(C3CCNCC3)c2)cnc1N)c1c(Cl)ccc(F)c1Cl [Crizotinib] (partner 1 µM)
Procedure, shortened: as §1

[3] = compound: C/C(=N\NC(=S)N1CCC1)/C2=CC=CC=N2 + C[C@]1(O)C[C@@H](c2nc(-c3ccc4ccc(-c5ccccc5)nc4c3)c3c(N)nccn32)C1 [Linsitinib] (partner 1 µM)
Procedure, shortened: as §1

[4] = compound: C/C(=N\NC(=S)N1CCC1)/C2=CC=CC=N2 + Cc1cc(Nc2cc(N3CCN(C)CC3)nc(Sc3ccc(NC(=O)C4CC4)cc3)n2)n[nH]1 [Tozasertib] (partner 0.1 µM)
Procedure, shortened: as §1

Row | Cell Line | relative viability ([1]; first compound 0.05 µM) | relative viability ([1]; first compound 0.1581 µM) | relative viability ([1]; first compound 0.5 µM) | relative viability ([1]; first compound 1.581 µM) | relative viability ([1]; first compound 5 µM) | relative viability ([2]; first compound 0.05 µM) | relative viability ([2]; first compound 0.1581 µM) | relative viability ([2]; first compound 0.5 µM) | relative viability ([2]; first compound 1.581 µM) | relative viability ([2]; first compound 5 µM) | relative viability ([3]; first compound 0.05 µM) | relative viability ([3]; first compound 0.1581 µM) | relative viability ([3]; first compound 0.5 µM) | relative viability ([3]; first compound 1.581 µM) | relative viability ([3]; first compound 5 µM) | relative viability ([4]; first compound 0.05 µM) | relative viability ([4]; first compound 0.1581 µM) | relative viability ([4]; first compound 0.5 µM) | relative viability ([4]; first compound 1.581 µM) | relative viability ([4]; first compound 5 µM)
1 | LU99A | 0.186 | 0.182 | 0.161 | 0.162 | 0.177 | 0.23 | 0.0986 | 0.168 | 0.133 | 0.143 | 0.189 | 0.132 | 0.117 | 0.155 | 0.172 | 0.155 | 0.164 | 0.164 | 0.152 | 0.165
2 | NCI-H1355 | 0.201 | 0.213 | 0.208 | 0.18 | 0.178 | 0.318 | 0.63 | 0.189 | 0.151 | 0.172 | 0.259 | 0.632 | 0.193 | 0.182 | 0.181 | 0.186 | 0.169 | 0.17 | 0.172 | 0.163
3 | NCI-H520 | 0.153 | 0.192 | 0.158 | 0.169 | 0.242 | 0.0874 | 0.112 | 0.123 | 0.104 | 0.116 | 0.164 | 0.145 | 0.123 | 0.116 | 0.169 | 0.191 | 0.241 | 0.197 | 0.175 | 0.269
4 | NCI-H661 | 0.243 | 0.208 | 0.169 | 0.188 | 0.19 | 0.361 | 0.322 | 0.263 | 0.349 | 0.288 | 0.186 | 0.218 | 0.191 | 0.196 | 0.212 | 0.239 | 0.261 | 0.23 | 0.235 | 0.248
5 | NCI-H650 | 0.162 | 0.228 | 0.194 | 0.211 | 0.198 | 0.187 | 0.195 | 0.221 | 0.146 | 0.171 | 0.214 | 0.262 | 0.251 | 0.153 | 0.18 | 0.184 | 0.189 | 0.185 | 0.158 | 0.16
6 | NCI-H647 | 0.0818 | 0.107 | 0.109 | 0.117 | 0.0913 | 0.202 | 0.122 | 0.162 | 0.096 | 0.104 | 0.148 | 0.103 | 0.159 | 0.0971 | 0.0901 | 0.0603 | 0.0452 | 0.0549 | 0.0672 | 0.0612
7 | 201T | 0.402 | 0.21 | 0.201 | 0.166 | 0.134 | 0.773 | 0.983 | 0.485 | 0.477 | 0.321 | 0.742 | 1 | 0.564 | 0.503 | 0.41 | 0.424 | 0.445 | 0.368 | 0.292 | 0.296
8 | NCI-H838 | 0.167 | 0.179 | 0.19 | 0.129 | 0.142 | 0.174 | 0.175 | 0.19 | 0.18 | 0.15 | 0.241 | 0.224 | 0.198 | 0.183 | 0.143 | 0.148 | 0.143 | 0.137 | 0.133 | 0.129
